Entries after “also recorded” stand apart in the source; their conditions may differ.
Assays:
[1] = tested on: THP1 cells; assay: Cyto-ID autophagy detection assay, THP1 cells; assay type: cell-based, human; settings: 4h incubation, resveratrol 80 μM, ONX-0914 0.25 μM
[2] = tested on: CD14+ human blood monocytes; assay: Gene expression by qRT-PCR in LPS-induced CD14+ monocytes; assay type: cell-based; settings: for expression of Bax / expression of Bcl2 / proteasome subunits RNA (X, Y, Z): resveratrol 80 μM or ONX-0914 0.25 μM; for LPS-induced atg7 expression / LPS-induced expression of resistin / expression of ICAM-1 / expression of IFNγ / expression of IL-8 / expression of LMP10 subunit / expression of Sirt-1 / expression of TNF-α / mRNA expression of LMP2 subunit / mRNA expression of LMP7 subunit: resveratrol 80 μM or ONX-0914 0.25 μM pretreatment 1h, LPS 10 ng/mL 4h; for proteasome subunits RNA (X, Y, Z): with LPS 10 ng/mL 4h
[3] = tested on: purified human 20S proteasome and immunoproteasome, T-like activity; assay: Purified proteasome fluorescence assay, T-like activity; assay type: biochemical
[4] = tested on: purified human 20S proteasome and immunoproteasome, PA activity; assay: Purified proteasome fluorescence assay, PA activity; assay type: biochemical; settings: 50 μM dose, cell-free
[5] = tested on: pIκBα in CD14+ human blood monocytes; assay: pIκBα protein levels by immunoblot; assay type: cell-based; settings: LPS 10 ng/ml-induced monocytes, resveratrol 80 μM or ONX-0914 0.25 μM, 60 min preincubation
[6] = target: purified human 20S immunoproteasome (LMP7, LMP2 and LMP10), CT-like activity (Homo sapiens, UniProt P28062); assay: Purified proteasome fluorescence assay, CT-like activity, immunoproteasome; assay type: biochemical
[7] = target: purified human 20S immunoproteasome (LMP subunits), PA activity (Homo sapiens, UniProt P28065); assay: Purified proteasome fluorescence assay, PA activity, immunoproteasome; assay type: biochemical
[8] = tested on: CD14+ human blood monocytes; assay: Cyto-ID autophagy detection assay, blood monocytes; assay type: cell-based; settings: 4h incubation, resveratrol 80 μM
[9] = MTT and LDH cell death assay; settings: human
[10] = tested on: monocytes; assay: MTT and LDH cell death assay; settings: 80 μM, human monocytes, MTT, LDH or autophagy tests
[11] = tested on: PA proteasome activity in THP1 cells; assay: Cell-based proteasome activity, luminescence assay; parameters: species or system human; settings: read-out: IC50, PA activity (cellular), 30 min incubation
[12] = tested on: T-like proteasome activity in THP1 cells; assay: Cell-based proteasome activity, luminescence assay; parameters: species or system human; settings: read-out: IC50, T-like activity (cellular), 30 min incubation
[13] = target: purified human 20S proteasome (X, Y and Z), CT-like activity (Homo sapiens, UniProt P28074); assay type: biochemical
[14] = target: purified human 20S proteasome, PA activity (Homo sapiens, UniProt P28072); assay: Purified proteasome fluorescence assay, PA activity, constitutive proteasome; assay type: biochemical
[15] = tested on: CT-like proteasome activity in THP1 cells; assay: Cell-based proteasome activity, luminescence assay; parameters: species or system human; settings: read-out: IC50, CT-like activity (cellular), 30 min incubation

In the case of `COc1ccc(C[C@H](NC(=O)[C@H](C)NC(=O)CN2CCOCC2)C(=O)N[C@@H](Cc2ccccc2)C(=O)C2(C)CO2)cc1` (stereo in doubt) [ONX-0914, reference compound], the induction of autophagy [1] is reported as “resulted in autophagy and vacuole accumulation”, the “expression of Bax” value [2] is reported as “didn’t notice any effect” and the “expression of Bcl2” value [2] is reported as “didn’t notice any effect”. The “LPS-induced atg7 expression” value [2] was “but not by ONX-0914”, the “LPS-induced expression of resistin” value [2] was “decreased” and the “expression of ICAM-1” value [2] was “significantly downregulated”. The “expression of IFNγ” value [2] was “significantly downregulated”, the “expression of IL-8” value [2] was “significantly downregulated” and the “expression of LMP10 subunit” value [2] was “no significant change”. The “expression of Sirt-1” value [2] was “no significant upregulation”, the “expression of TNF-α” value [2] was “significantly downregulated” and the “mRNA expression of LMP2 subunit” value [2] was “robust decrease”. For the same compound, the “mRNA expression of LMP7 subunit” value [2] was “robust decrease”, the “proteasome subunits RNA (X, Y, Z)” value [2] was “did not observe a significant change” and the “inhibition of T-like activity” value ([3]; highest dose of ONX-0914, cell-free) was “didn’t observe any inhibition”. For the same compound, the “inhibition of PA activity” value [4] was 30% and the “degradation of pIκBα protein” value [5] was “inhibited pIκBα protein degradation”.
For `Oc1ccc(C=Cc2cc(O)cc(O)c2)cc1` [resveratrol, 3,5, 4′-trihydroxystilbene], the induction of autophagy [1] was “did not induce autophagy”, the IC50 [6] was 39.8 µM and the “expression of Bax” value [2] was “no change; also recorded: didn’t notice any effect”. The “expression of Bcl2” value [2] was “no change; also recorded: didn’t notice any effect”, the “LPS-induced atg7 expression” value [2] was “downregulated” and the “LPS-induced expression of resistin” value [2] was “decreased”. For the same compound, the “expression of ICAM-1” value [2] was “significantly downregulated”, the “expression of IFNγ” value [2] was “significantly downregulated” and the “expression of IL-8” value [2] was “significantly downregulated”. For the same compound, the “expression of LMP10 subunit” value [2] was “no significant change”, the “expression of Sirt-1” value [2] was “no significant upregulation” and the “expression of TNF-α” value [2] was “significantly downregulated”. For the same compound, the “mRNA expression of LMP2 subunit” value [2] was “robust decrease”, the “mRNA expression of LMP7 subunit” value [2] was “robust decrease” and the “proteasome subunits RNA (X, Y, Z)” value [2] was “did not observe a significant change”. The “expression of beclin1, eIF2α, p53 and hdac6 genes” value ([2]; resveratrol 80 μM, with or without LPS 10 ng/mL) was “no significant change”, the IC50 [7] was 40.8 µM and the induction of autophagy [8] was “did not induce autophagy”. The “inhibition of T-like activity” value ([3]; 100 μM dose, cell-free) was 33%, the viability at 4 h, 100 μM [9] was > 90% and the cell death [10] was “no cell death was observed”. The IC50 [11] was 1.37 µM, the “degradation of pIκBα protein” value [5] was “inhibited degradation of pIκBα protein levels” and the IC50 [12] was 5 µM. For the same compound, the IC50 [13] was 59.4 µM, the IC50 [14] was 52.9 µM and the IC50 [15] was 1.9 µM.

From paper PMC5999526 (Shock (Augusta, Ga.), 2018)
